According to patent US20200038412A1, “METHODS OF TREATING ALZHEIMER'S DISEASE USING AMINOSTEROL COMPOSITIONS” (Enterin, Inc., priority 2018, published 2020):

Experiments:
Assay type in all cases: in vivo, human
[1] = system: patients with PD and constipation; assay: Phase 2 trial Stage 1: bowel (prokinetic) response to single escalating oral doses; conditions: Stage 1, single oral dose
Description: (§1) Following successful screening, all subjects underwent a 14-day run-in period where the degree of constipation was assessed through a validated daily log (Zinsmeister et al. 2013) establishing baseline CSBMs/week. Subjects with an average of <3 CSBMs/week proceeded to dosing.
(§2) Tolerability limits included diarrhea or vomiting.

[2] = system: patients with PD and constipation; assay: Phase 2 trial Stage 2: bowel function under daily oral dosing (escalation, fixed dose, wash-out)
Description: as §1
In Stage 2, 34 patients were evaluated.
The primary efficacy outcome variable was whether or not a subject was a “success” or “failure”. This is an endpoint based on subject diary entries for the “fixed dose” period prior to the endpoint assessment defined as average complete stool frequency increase by 1 or more over baseline, or 3 or more complete spontaneous stools/week. The subject was deemed a “success” if s/he met one or more of the criteria listed above, otherwise the subject was deemed a “failure”. The primary analysis was based on all subjects with a baseline assessment and an assessment at the end of the “fixed-dose” period and was a comparison of the proportion of successes with 0.10 (the null hypothesis corresponding to no treatment effect).

[3] = system: patients with PD and constipation; assay: Phase 2 trial Stage 1: adverse events
From the text: as §2

Q: `CC(C)[C@@H](CC[C@@H](C)[C@H]1CC[C@H]2[C@@H]3[C@H](O)C[C@H]4C[C@@H](NCCCNCCCCN)CC[C@]4(C)[C@H]3CC[C@]12C)OS(=O)(=O)O` (single isomer, unassigned) [squalamine (ENT-01), squalamine] was tested. Which “cumulative response rate (CSBM within 24 hours of dosing)” value ([1]; 25 mg) did it give?
A: 25%

Q: And the “cumulative response rate (CSBM within 24 hours of dosing)” value ([1]; 200 mg (maximum))?
A: 80%

Q: What about the “improvement of ease of passage” value ([2]; 3.2 to 3.7) of the same molecule?
A: 16%

Q: And the “response rate (CSBM within 24 hours of dosing on at least 2 of 3 days)” value ([2]; Stage 2, daily oral dosing, 75 mg)?
A: 26%

Q: And the “CSBM, weekly average” value ([2]; Stage 2, fixed dose, mean (SD), n = 34, baseline 1.2 (0.90))?
A: 3.8 (2.4) CSBM/week

Q: And the “Suppository use / rescue medication, weekly average” value ([2]; Stage 2, fixed dose, mean (SD), n = 34, baseline 1.8 (1.92))?
A: 0.3 (0.67) /week

Q: And the “Consistency (Bristol stool scale 1-7)” value ([2]; Stage 2, fixed dose, mean (SD), n = 34, baseline 2.7 (1.20), listed as aminosterol)?
A: 4.1

Q: What about the “Ease of passage (Ease of evacuation scale 1-7)” value ([2]; Stage 2, fixed dose, mean (SD), n = 34, baseline 3.2 (0.73), listed as aminosterol) of the same molecule?
A: 3.7

Q: And the PAQ-SYM ([2]; Stage 2, wash-out, mean (SD), baseline 1.3 (0.45))?
A: 1.1 (0.60)

Q: What about the PAQ-QOL ([2]; Stage 2, wash-out, mean (SD), baseline 1.4 (0.49)) of the same molecule?
A: 1.2 (0.63)

Q: What about the Rescue meds ([2]; Stage 2, wash-out, mean (SD), baseline 1.8 (1.92)) of the same molecule?
A: 1.0 (1.40)

Q: What about the Consistency ([2]; Stage 2, wash-out, mean (SD), baseline 2.7 (1.20)) of the same molecule?
A: 2.8 (1.39)

Q: What about the Ease ([2]; Stage 2, wash-out, mean (SD), baseline 3.2 (0.73)) of the same molecule?
A: 3.3 (0.81)

Q: And the “improvement of average CSBM/week” value ([2]; baseline 1.2 to fixed dose 3.8)?
A: 216%

Q: And the “decrease of use of rescue medication” value ([2]; baseline 1.8/week to fixed dose 0.3)?
A: 83%

Q: And the “improvement of SBM” value ([2]; baseline 2.6 to fixed dose 4.5)?
A: 73%

Q: What about the “CSBM frequency in the randomized cohort” value ([2]; group later randomized to placebo (n = 9), fixed dose period (still on drug), baseline 1.6) of the same molecule?
A: 3.3 CSBM/week

Q: What about the “CSBM frequency in the randomized cohort” value ([2]; group randomized to treatment (n = 6), fixed dose period, baseline 0.8) of the same molecule?
A: 3.2 CSBM/week

Q: What about the “CSBM frequency in the randomized cohort” value ([2]; group randomized to treatment (n = 6), randomized period (4-6 days continued treatment), baseline 0.8) of the same molecule?
A: 2.4 CSBM/week

Q: What about the “CSBM frequency in the randomized cohort” value ([2]; group randomized to treatment (n = 6), washout, baseline 0.8) of the same molecule?
A: 0.9 CSBM/week

Q: And the “improvement of consistency (Bristol stool scale)” value ([2]; mean 2.7 to 4.1)?
A: 52%

Q: And the “mean dose required for a bowel response (prokinetic dose)” value ([2]; patients with baseline ≥1 CSBM/week)?
A: 120 mg

Q: And the patients responding ([2]; within effective dose range 75 mg to 250 mg)?
A: 85%

Q: What about the “AEs confined to the GI tract” value ([3]; Stage 1) of the same molecule?
A: 88%

Q: What about the “Diarrhea (common adverse events by dose)” value ([3]; Stage 1, 25 mg) of the same molecule?
A: 1

Q: What about the “Nausea (common adverse events by dose)” value ([3]; Stage 1, 25 mg) of the same molecule?
A: 0

Q: And the “Vomiting (common adverse events by dose)” value ([3]; Stage 1, 25 mg)?
A: 0

Q: What about the “Diarrhea (common adverse events by dose)” value ([3]; Stage 1, 50 mg) of the same molecule?
A: 1

Q: What about the “Nausea (common adverse events by dose)” value ([3]; Stage 1, 50 mg) of the same molecule?
A: 0

Q: What about the “Vomiting (common adverse events by dose)” value ([3]; Stage 1, 50 mg) of the same molecule?
A: 0

Q: What about the “Diarrhea (common adverse events by dose)” value ([3]; Stage 1, 75 mg) of the same molecule?
A: 1

Q: What about the “Nausea (common adverse events by dose)” value ([3]; Stage 1, 75 mg) of the same molecule?
A: 0

Q: And the “Vomiting (common adverse events by dose)” value ([3]; Stage 1, 75 mg)?
A: 0

Q: And the “Diarrhea (common adverse events by dose)” value ([3]; Stage 1, 100 mg)?
A: 0

Q: And the “Nausea (common adverse events by dose)” value ([3]; Stage 1, 100 mg)?
A: 1

Q: And the “Vomiting (common adverse events by dose)” value ([3]; Stage 1, 100 mg)?
A: 1

Q: And the “Diarrhea (common adverse events by dose)” value ([3]; Stage 1, 125 mg)?
A: 1

Q: And the “Nausea (common adverse events by dose)” value ([3]; Stage 1, 125 mg)?
A: 2

Q: And the “Vomiting (common adverse events by dose)” value ([3]; Stage 1, 125 mg)?
A: 1

Q: What about the “Diarrhea (common adverse events by dose)” value ([3]; Stage 1, 150 mg) of the same molecule?
A: 1

Q: And the “Nausea (common adverse events by dose)” value ([3]; Stage 1, 150 mg)?
A: 0

Q: What about the “Vomiting (common adverse events by dose)” value ([3]; Stage 1, 150 mg) of the same molecule?
A: 0

Q: And the “Diarrhea (common adverse events by dose)” value ([3]; Stage 1, 175 mg)?
A: 1

Q: What about the “Nausea (common adverse events by dose)” value ([3]; Stage 1, 175 mg) of the same molecule?
A: 1

Q: And the “Vomiting (common adverse events by dose)” value ([3]; Stage 1, 175 mg)?
A: 0

Q: And the “Diarrhea (common adverse events by dose)” value ([3]; Stage 1, 200 mg)?
A: 0

Q: And the “Nausea (common adverse events by dose)” value ([3]; Stage 1, 200 mg)?
A: 2

Q: And the “Vomiting (common adverse events by dose)” value ([3]; Stage 1, 200 mg)?
A: 0

Q: What about the patients with diarrhea ([3]; Stage 1, 4/10 patients) of the same molecule?
A: 40%

Q: What about the patients with nausea ([3]; Stage 1, 4/10 patients) of the same molecule?
A: 40%

Q: And the “Abdominal pain, Mild” value ([3]; Stage 1, 10 dosed)?
A: 2 (20) n, %

Q: What about the “Abdominal pain, Moderate” value ([3]; Stage 1, 10 dosed) of the same molecule?
A: 3 (30) n, %

Q: And the “Blood in urine, Moderate” value ([3]; Stage 1, 10 dosed)?
A: 0 n, %

Q: What about the “Diarrhea, Mild” value ([3]; Stage 1, 10 dosed) of the same molecule?
A: 1 (10) n, %

Q: And the “Diarrhea, Moderate” value ([3]; Stage 1, 10 dosed)?
A: 3 (30) n, %

Q: What about the “Diarrhea, Severe” value ([3]; Stage 1, 10 dosed) of the same molecule?
A: 0 n, %

Q: And the “Difficulty falling asleep, Mild” value ([3]; Stage 1, 10 dosed)?
A: 0 n, %

Q: What about the “Difficulty falling asleep, Moderate” value ([3]; Stage 1, 10 dosed) of the same molecule?
A: 0 n, %

Q: And the “Dizziness, Mild” value ([3]; Stage 1, 10 dosed)?
A: 0 n, %

Q: What about the “Dizziness, Moderate” value ([3]; Stage 1, 10 dosed) of the same molecule?
A: 0 n, %

Q: And the “Eye infection, Mild” value ([3]; Stage 1, 10 dosed)?
A: 0 n, %

Q: What about the “Eye infection, Moderate” value ([3]; Stage 1, 10 dosed) of the same molecule?
A: 0 n, %

Q: What about the “Flatulence, Mild” value ([3]; Stage 1, 10 dosed) of the same molecule?
A: 2 (20) n, %

Q: What about the “Flatulence, Moderate” value ([3]; Stage 1, 10 dosed) of the same molecule?
A: 0 n, %

Q: And the “Headache, Mild” value ([3]; Stage 1, 10 dosed)?
A: 1 (10) n, %

Q: What about the “Headache, Moderate” value ([3]; Stage 1, 10 dosed) of the same molecule?
A: 0 n, %

Q: What about the “Increased urinary frequency, Mild” value ([3]; Stage 1, 10 dosed) of the same molecule?
A: 0 n, %

Q: And the “Increased urinary frequency, Moderate” value ([3]; Stage 1, 10 dosed)?
A: 0 n, %

Q: And the “Loss of appetite, Moderate” value ([3]; Stage 1, 10 dosed)?
A: 0 n, %

Q: What about the “Lower GI bleed, Severe” value ([3]; Stage 1, 10 dosed) of the same molecule?
A: 0 n, %

Q: What about the “Nausea, Mild” value ([3]; Stage 1, 10 dosed) of the same molecule?
A: 4 (40) n, %

Q: And the “Nausea, Moderate” value ([3]; Stage 1, 10 dosed)?
A: 0 n, %

Q: What about the “Skin lesions-rash, Mild” value ([3]; Stage 1, 10 dosed) of the same molecule?
A: 0 n, %
